Source: patent publication US7498406B2, “Substantially cell membrane impermeable compound and use thereof” (priority 1999, dated 2009)
“Also recorded” adds a separate entry of the source.

Key:
chick CAM = assay: Chick chorioallantoic membrane (CAM) angiogenesis; assay type: in vivo; conditions: for inhibition of CAM angiogenesis (avascular zones): 5, 10 or 50 μg per pellet, 48 hr; for adverse effect on the wellbeing of the chick embryo: up to 50 μg per pellet
Procedure: FIG. 22. Inhibition of CAM angiogenesis by GSAO. Fertilised 3 day-old white Leghorn eggs were cracked, the embryos placed in petri dishes and incubated for 3 days. Methylcellulose discs containing 5, 10 or 50 μg of either GSAA or GSAO were then applied to the CAM of individual embryos and incubated for 48 hr. The CAMs were scored for no obvious effect or inhibition of angiogenesis as defined by avascular zones. Photographs of CAM's after incubation with discs containing 10 μg of either GSAA (top) or GSAO (bottom) is shown in the left hand panel. The dotted circle indicates the placement of the disc.
The chick CAM assay has been used for the detection and analysis of angiogenesis inhibition (Nguyen et al., 1994). Fertilised 3 day-old white Leghorn eggs (Spafas, Norwich, Conn.) were cracked, the embryos with intact yolks placed in 20×100 mm petri dishes and incubated for 3 days at 37° C. and 3% CO2 (Folkman, 1995). Methylcellulose (Fisher Scientific, Fair Lawn, N.J.) discs containing 5, 10 or 50 μg of either GSAA or GSAO were then applied to the CAM of individual embryos and incubated for 48 hr at 37° C. and 3% CO2. The discs were made by desiccation of GSAA or GSAO in 10 μl of 0.45% methycellulose on teflon rods. The CAMs were observed using a stereomicroscope and scored for no obvious effect or inhibition of CAM angiogenesis as defined by avascular zones. On some occasions CAM blood vessels were injected with India ink and photographed.

BxPC-3 tumours = assay: Tumour growth in mice, subcutaneous administration; assay type: in vivo, SCID mice; conditions: for inhibition of the rate of BxPC-3 tumour growth: subcutaneous
Procedure: FIG. 23. Inhibition of human pancreatic tumour growth by GSAO. BxPC-3 tumours were established in the proximal midline of female 7 to 9 week old SCID mice. When the tumours were ˜0.1 cm^3 in volume the mice were randomised into two groups and treated with either GSAA or GSAO at doses of 2 (part A) or 10 (part B) mg per kg per day in 0.2 mL of PBS containing 100 mM glycine. The compounds were administered subcutaneously at a site distant from the tumour. Tumour volume and animal weight was measured every 3 days. The GSAO/GSAA tumour volume ratio at day 26 of treatment with 2 mg per kg per day was 0.34 (part A). The GSAO/GSAA tumour volume ratio at day 31 of treatment with 10 mg per kg per day was 0.09 (part B). There were 4 mice per group in part A and 4 mice treated with GSAA and 5 with GSAO in part B. The mice and excised tumours from the experiment described in Part B at day 31 of treatment are shown in Part C. The data points and errors represent the mean and SE of the tumour volumes.
Female 7 to 9 week old SCID or C57Bl6/J mice were used (Massachusetts General Hospital, Boston, Mass.). Mice were held in groups of 3 to 5 at a 12 hour day and night cycle and were fed with animal chow and water ad libidum. SCID mice were anaesthetised by inhalation of isoflurane, the dorsal skin shaved and cleaned with ethanol, and a suspension of 2.5×10^6 BxPC-3 or HT1080 cells in 0.2 mL of DMEM was injected subcutaneously in the proximal midline. C57Bl6/J mice with Lewis lung carcinomas of 0.6-1.2 cm^3 volumes were sacrificed and the skin overlying the tumour was cleaned with betadine and ethanol. Tumour tissue was excised under aseptic conditions and a suspension of tumour cells in 0.9% saline was made by passage of tumour tissue through a sieve and a series of sequentially smaller 22- to 30-gauge hypodermic needles. C57Bl6/J mice were anaesthetised and prepared as for SCID mice and a suspension of Lewis lung carcinoma cells in 0.2 mL of saline was injected subcutaneously in the proximal midline. Tumours were allowed to establish and grow to a size of ˜0.1 cm^3 after which they were randomised into two groups. The tumours were measured in two diameters and tumour volume was calculated using the relationship, tumour volume=a×b^2×0.52, where a is the longest and b the shortest diameters in cm. Animals were treated with either GSAA or GSAO at doses of 2 or 10 mg per kg per day in 0.2 mL of PBS containing 100 mM glycine. The compounds were administered subcutaneously at a site distant from the tumour. Tumour volume and animal weight was measured every 3 days. The tumours were excised and weighed when the animals were sacrificed.

| Compound | inhibition of CAM angiogenesis (avascular zones) (chick CAM) | adverse effect on the wellbeing of the chick embryo (chick CAM) | inhibition of the rate of BxPC-3 tumour growth (BxPC-3 tumours; 2 mg per kg per day) | inhibition of the rate of BxPC-3 tumour growth (BxPC-3 tumours; 10 mg per kg per day) [%] | GSAO/GSAA tumour volume ratio (BxPC-3 tumours; day 26 of treatment, 2 mg per kg per day) | GSAO/GSAA tumour volume ratio (BxPC-3 tumours; day 31 of treatment, 10 mg per kg per day) |
| --- | --- | --- | --- | --- | --- | --- |
| N[C@@H](CCC(=O)N[C@@H](CSCC(=O)Nc1ccc([As](=O)(O)O)cc1)C(=O)NCC(=O)O)C(=O)O [GSAA, 4-(N-(S-glutathionylacetyl)amino)phenylarsonic acid, reference compound] | did not inhibit CAM angiogenesis; also recorded: no effects on CAM angiogenesis | Neither GSAA nor GSAO had any apparent adverse effect | no effect | < 20 |  |  |
| NC(CCC(=O)NC(CSCC(=O)Nc1ccc([As]=O)cc1)C(=O)NCC(=O)O)C(=O)O (stereo not shown) [GSAO, 4-(N-(S-glutathionylacetyl)amino)-phenylarsenoxide] | inhibited angiogenesis in the CAM in a concentration-dependent manner | Neither GSAA nor GSAO had any apparent adverse effect | ~70% | > 90 | 0.34 | 0.09 |
